Values of other authors, collected in patent US5122371A (priority 1991, dated 1992).

How the values were obtained:
[1] = tested on: Na+ K+-ATPase enzyme; conditions: known property of cardiac glycosides
[2] = in vivo

C[C@H]1O[C@@H](O[C@H]2[C@@H](O)C[C@H](O[C@H]3[C@@H](O)C[C@H](O[C@H]4CC[C@@]5(C)[C@H](CC[C@@H]6[C@@H]5C[C@@H](O)[C@]5(C)[C@@H](C7=CC(=O)OC7)CC[C@]65O)C4)O[C@@H]3C)O[C@@H]2C)C[C@H](O)[C@@H]1O [digoxin]
Effect on Na+ K+-ATPase enzyme activity [1]: inhibit

C[C@@H]1O[C@@H](O[C@H]2C[C@@H](O)[C@]3(CO)[C@H]4[C@H](O)C[C@]5(C)[C@@H](C6=CC(=O)OC6)CC[C@]5(O)[C@@H]4CC[C@]3(O)C2)[C@H](O)[C@H](O)[C@H]1O [ouabain]
half-life [2]: 21 h | Effect on Na+ K+-ATPase enzyme activity [1]: inhibit

digitalis
Effect on Na+ K+-ATPase enzyme activity [1]: inhibit
